# Laboratory results reported in patent US20160264593A1 (priority 2013, published 2016).
# Several values for one entry are separate records, joined by “and”; a condition that tells them apart may be missing. Equal values may be shown once.
# Test: Pharmacokinetic study of 151 (and 100) in SD rats, iv and oral; plasma
# Conditions: for AUC0-t of 151 / AUC0-∞ of 151 / CL of 151 / MRT of 151 / T1/2 of 151 / Vss of 151 / Cmax of 151: plasma
# Method: A pharmacokinetic study of 151 was conducted in SD rats. The study consisted of two dose levels at 1.0 (iv) and 10 (oral) mg/kg. The blood samples were collected at predetermined times from rats and centrifuged to separate plasma. An LC/MS/MS method was developed to determine the test article in plasma samples. The pharmacokinetic parameters of 151 following iv and oral administration to SD rats were calculated. The absolute bioavailability was evaluated.
# The final concentration of the test article was 0.2 mg/mL for iv administration and 1.0 mg/mL for oral administration. The test article solutions were administered using the most recent body weight for each animal.
# Blood (approximately 0.3 mL) were collected via orbital plexus into tubes containing sodium heparin at 0.25, 0.5, 1, 2, 3, 5, 7, 9, and 24 hours after oral administration; at 5 min, 15 min, 0.5, 1, 2, 3, 5, 7, 9 and 24 hours after iv administration. Samples were centrifuged for 5 min, at 4° C. with the centrifuge set at 11,000 rpm to separate plasma. The obtained plasma samples were stored frozen at a temperature of about −70° C. until analysis.
# Frozen plasma samples were thawed at room temperature and vortexed thoroughly. With a pipette, an aliquot (30 μL) of plasma was transferred into a 1.5-mL conical polypropylene tube. To each sample, 160 μL of acetonitrile were added. The samples were then vigorously vortex-mixed for 1 min. After centrifugation at 11000 rpm for 5 min, a 15 μL aliquot of the supernatant was injected into the LC-MS/MS system for analysis.
# Calibration standards were prepared by spiking 30 μL of the 151 standard solutions into 30 μL of heparinized blank rat plasma. The nominal standard concentrations in the standard curve were 1.00, 3.00, 10.0, 30.0, 100, 300, 1000 and 3000 ng/mL.
# The analysis was performed using an LC-MS/MS system consisting of the following components—HPLC system: Agilent 1200 series instrument consisting of G1312B vacuum degasser, G1322A binary pump, G1316B column oven and G1367D autosampler (Agilent, USA); MS/MS system: Agilent 6460 triple quadrupole mass spectrometer, equipped with an APCI Interface (Agilent, USA); Data system: MassHunter Software (Agilent, USA).
# Chromatographic separation was carried out at room temperature—Analytical column: C8 column (4.6 mm×150 mm I.D., 5 μm, Agilent, USA); Mobile phase: Acetonitrile:10 mM ammonium acetate (75:25, v/v); Flow rate: 0.80 mL/min; Injection volume: 15 μL.
# The mass spectrometer was operated in the positive mode. Ionization was performed applying the following parameters: gas temperature, 325° C.; vaporizer temperature, 350° C.; gas flow, 4 L/min; nebulizer, 20 psi; capillary voltage, 4500 V; corona current, 4 μA. 151 was detected using MRM of the transitions m/z 283→m/z 123 and m/z 283→m/z 251, simultaneously. The optimized collision energies of 25 eV and 10 eV were used for m/z 123 and m/z 251, respectively.
# Quantification was achieved by the external standard method. Concentrations of the test article were calculated using a weighted least-squares linear regression (W=1/x^2).
# The pharmacokinetic parameters were evaluated using WinNonlin version 5.3 (Pharsight Corp., Mountain View, Calif., USA), assuming a non-compartmental model for drug absorption and distribution. • AUC0-t is the area under the plasma concentration-time curve from time zero to last sampling time, calculated by the linear trapezoidal rule. • AUC0-∞ is the area under the plasma concentration-time curve from time zero extrapolating to infinity. • T1/2 is the elimination half-life associated with the terminal (log-linear) elimination phase, which is estimated via linear regression of time vs. log concentrations. • CL is the total body clearance. • Vss is the volume of distribution at steady-state.
# [1] = 151 IV 1.0 mg/kg, SD rats, individual, 1 mg/kg
# [2] = 151 IV 1.0 mg/kg, SD rats, mean
# [3] = 151 PO 10 mg/kg, SD rats, individual, 10 mg/kg
compound,measurement,setting,value
COC(=O)C1C2CCC(O2)C1C(=O)N1CCN(C)CC1 (centres unmarked) [Compound 151],151 plasma concentration,"151 IV 1.0 mg/kg, SD rats, 0.083 h, individual, 1 mg/kg",1677 ng/mL and 1301 ng/mL
same,151 plasma concentration,"151 IV 1.0 mg/kg, SD rats, 0.083 h, mean",1489 ng/mL
same,151 plasma concentration,"151 IV 1.0 mg/kg, SD rats, 0.250 h, individual, 1 mg/kg",1160 ng/mL and 949 ng/mL
same,151 plasma concentration,"151 IV 1.0 mg/kg, SD rats, 0.250 h, mean",1055 ng/mL
same,151 plasma concentration,"151 IV 1.0 mg/kg, SD rats, 0.50 h, individual, 1 mg/kg",760 ng/mL and 807 ng/mL
same,151 plasma concentration,"151 IV 1.0 mg/kg, SD rats, 0.50 h, mean",683 ng/mL
same,151 plasma concentration,"151 IV 1.0 mg/kg, SD rats, 1.0 h, individual, 1 mg/kg",381 ng/mL and 314 ng/mL
same,151 plasma concentration,"151 IV 1.0 mg/kg, SD rats, 1.0 h, mean",348 ng/mL
same,151 plasma concentration,"151 IV 1.0 mg/kg, SD rats, 2.0 h, individual, 1 mg/kg",95.8 ng/mL and 103 ng/mL
same,151 plasma concentration,"151 IV 1.0 mg/kg, SD rats, 2.0 h, mean",99.6 ng/mL
same,151 plasma concentration,"151 IV 1.0 mg/kg, SD rats, 3.0 h, individual, 1 mg/kg",39.6 ng/mL and 28.1 ng/mL
same,151 plasma concentration,"151 IV 1.0 mg/kg, SD rats, 3.0 h, mean",33.8 ng/mL
same,151 plasma concentration,"151 IV 1.0 mg/kg, SD rats, 5.0 h, individual, 1 mg/kg",9.75 ng/mL and 3.63 ng/mL
same,151 plasma concentration,"151 IV 1.0 mg/kg, SD rats, 5.0 h, mean",6.69 ng/mL
same,151 plasma concentration,"151 IV 1.0 mg/kg, SD rats, 7.0 h, individual, 1 mg/kg",12.2 ng/mL and 1.83 ng/mL
same,151 plasma concentration,"151 IV 1.0 mg/kg, SD rats, 7.0 h, mean",7.02 ng/mL
same,151 plasma concentration,"151 IV 1.0 mg/kg, SD rats, 9.0 h, individual",2.01 ng/mL
same,151 plasma concentration,"151 IV 1.0 mg/kg, SD rats, 9.0 h, individual, 1 mg/kg",BLQ
same,151 plasma concentration,"151 IV 1.0 mg/kg, SD rats, 9.0 h, mean",1.00 ng/mL
same,151 plasma concentration,"151 IV 1.0 mg/kg, SD rats, 24 h, individual",BLQ
same,conversion of 151 to 100 in plasma (statement),151 PO 10 mg/kg and iv 1.0 mg/kg,converted to LB100
same,151 plasma concentration,"151 PO 10 mg/kg, SD rats, 0.25 h, individual, 10 mg/kg",2231 ng/mL and 2029 ng/mL and 2731 ng/mL
same,151 plasma concentration,"151 PO 10 mg/kg, SD rats, 0.25 h, mean",2330 ng/mL
same,151 plasma concentration,"151 PO 10 mg/kg, SD rats, 0.50 h, individual, 10 mg/kg",2451 ng/mL and 3934 ng/mL and 3343 ng/mL
same,151 plasma concentration,"151 PO 10 mg/kg, SD rats, 0.50 h, mean",3243 ng/mL
same,151 plasma concentration,"151 PO 10 mg/kg, SD rats, 1.0 h, individual, 10 mg/kg",2204 ng/mL and 2581 ng/mL and 2538 ng/mL
same,151 plasma concentration,"151 PO 10 mg/kg, SD rats, 1.0 h, mean",2441 ng/mL
same,151 plasma concentration,"151 PO 10 mg/kg, SD rats, 2.0 h, individual, 10 mg/kg",1100 ng/mL and 1237 ng/mL and 1582 ng/mL
same,151 plasma concentration,"151 PO 10 mg/kg, SD rats, 2.0 h, mean",1306 ng/mL
same,151 plasma concentration,"151 PO 10 mg/kg, SD rats, 3.0 h, individual, 10 mg/kg",521 ng/mL and 660 ng/mL and 794 ng/mL
same,151 plasma concentration,"151 PO 10 mg/kg, SD rats, 3.0 h, mean",658 ng/mL
same,151 plasma concentration,"151 PO 10 mg/kg, SD rats, 5.0 h, individual, 10 mg/kg",125 ng/mL and 99.4 ng/mL and 192 ng/mL
same,151 plasma concentration,"151 PO 10 mg/kg, SD rats, 5.0 h, mean",139 ng/mL
same,151 plasma concentration,"151 PO 10 mg/kg, SD rats, 7.0 h, individual, 10 mg/kg",42.6 ng/mL and 20.7 ng/mL and 68.0 ng/mL
same,151 plasma concentration,"151 PO 10 mg/kg, SD rats, 7.0 h, mean",43.8 ng/mL
same,151 plasma concentration,"151 PO 10 mg/kg, SD rats, 9.0 h, individual, 10 mg/kg",52.1 ng/mL and 38.2 ng/mL and 66.1 ng/mL
same,151 plasma concentration,"151 PO 10 mg/kg, SD rats, 9.0 h, mean",52.1 ng/mL
same,151 plasma concentration,"151 PO 10 mg/kg, SD rats, 24 h, individual",BLQ
same,F of 151,"151 PO 10 mg/kg, SD rats, mean",54.6%
same,conversion to endothal in the plasma (statement),151 administered to rats,converted to endothal
same,mean clearance of 151 from rat plasma,151 iv 1.0 mg/kg,14.3 mL/min/kg
same,volume of distribution at steady state of 151,151 iv 1.0 mg/kg,0.736 L/kg
same,elimination half-life of 151,151 iv 1.0 mg/kg (n=2),0.89 h
same,mean half-life of 151,151 oral 10 mg/kg (n=3),1.26 h
same,time of peak plasma concentration of 151,151 oral 10 mg/kg (n=3),0.5 h
same,absolute bioavailability (F) of 151,"oral 10 mg/kg, based on AUC0-∞",54.6%
same,AUC0-t of 151,[1],1293 ng·h/mL and 1045 ng·h/mL
same,AUC0-∞ of 151,[1],1309 ng·h/mL and 1047 ng·h/mL
same,CL of 151,[1],12.7 mL/min/kg and 15.9 mL/min/kg
same,MRT of 151,[1],0.91 h and 0.81 h
same,T1/2 of 151,[1],0.91 h and 0.87 h
same,Vss of 151,[1],0.696 L/kg and 0.775 L/kg
same,AUC0-t of 151,[2],1169 ng·h/mL
same,AUC0-∞ of 151,[2],1178 ng·h/mL
same,CL of 151,[2],14.3 mL/min/kg
same,MRT of 151,[2],0.86 h
same,T1/2 of 151,[2],0.89 h
same,Vss of 151,[2],0.736 L/kg
same,AUC0-t of 151,[3],5399 ng·h/mL and 6423 ng·h/mL and 7199 ng·h/mL
same,AUC0-∞ of 151,[3],5499 ng·h/mL and 6484 ng·h/mL and 7328 ng·h/mL
same,Cmax of 151,[3],2451 ng/mL and 3934 ng/mL and 3343 ng/mL
same,MRT of 151,[3],1.86 h and 1.62 h and 1.95 h
same,T1/2 of 151,[3],1.33 h and 1.10 h and 1.35 h
same,AUC0-t of 151,"151 PO 10 mg/kg, SD rats, mean",6340 ng·h/mL
same,AUC0-∞ of 151,"151 PO 10 mg/kg, SD rats, mean",6437 ng·h/mL
same,Cmax of 151,"151 PO 10 mg/kg, SD rats, mean",3243 ng/mL
same,MRT of 151,"151 PO 10 mg/kg, SD rats, mean",1.81 h
same,T1/2 of 151,"151 PO 10 mg/kg, SD rats, mean",1.26 h
